The text below walks through data of ChEMBL document CHEMBL4385622, “Discovery of velpatasvir (GS-5816): A potent pan-genotypic HCV NS5A inhibitor in the single-tablet regimens Vosevi® and Epclusa®” (Bioorg Med Chem Lett, 2019).

Data set [1] is described as follows: Fraction absorbed in rat. It is filed as ADME. The note with it: in vivo, read-out: Fabs.
Data set [2] in a line: Fraction absorbed in dog. The note with it: in vivo, read-out: Fabs. It is filed as ADME, Canis lupus familiaris.
The nature of data set [3]: Fraction absorbed in cynomolgus monkey. It is filed as ADME, Macaca fascicularis. The note with it: in vivo, read-out: Fabs.
The target of data set [4] is T1, Nonstructural protein 5A (Hepatitis C virus) (UniProt Q5L478).
T1 sequence (whole entry): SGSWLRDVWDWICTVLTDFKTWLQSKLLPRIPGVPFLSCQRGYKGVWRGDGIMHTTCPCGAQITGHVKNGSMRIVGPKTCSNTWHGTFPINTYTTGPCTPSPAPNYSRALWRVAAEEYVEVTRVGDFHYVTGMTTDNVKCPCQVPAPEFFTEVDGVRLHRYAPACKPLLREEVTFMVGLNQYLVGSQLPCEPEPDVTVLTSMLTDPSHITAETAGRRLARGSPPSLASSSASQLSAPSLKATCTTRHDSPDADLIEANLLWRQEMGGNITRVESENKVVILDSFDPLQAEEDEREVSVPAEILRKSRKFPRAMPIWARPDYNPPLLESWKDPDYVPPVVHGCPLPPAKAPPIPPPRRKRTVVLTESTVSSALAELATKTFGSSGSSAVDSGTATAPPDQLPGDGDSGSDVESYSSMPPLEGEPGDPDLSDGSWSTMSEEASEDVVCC
In words: Potency index, ratio of EC50 of ledipasvir to EC50 of test compound for inhibition of NS5A in HCV genotype 2b infected in human HuH7 replicon cells assessed as reduction in viral replication after 3 days by luciferase reporter gene assay. It is filed as cell-based. The note with it: Hepatitis C virus subtype 2b. A general note: In antiviral work, replicon cells carry a viral genome segment that copies itself.

The target in data set [5] is T1, Nonstructural protein 5A (Hepatitis C virus). Description: Potency index, ratio of EC50 of ledipasvir to EC50 of test compound for inhibition of NS5A in HCV genotype 3a infected in human HuH7 replicon cells assessed as reduction in viral replication after 3 days by luciferase reporter gene assay. It is filed as cell-based. The note with it: Hepatitis C virus subtype 3a.

For data set [6] the target is unchanged. In words: Potency index, ratio of EC50 of ledipasvir to EC50 of test compound for inhibition of NS5A in HCV genotype 2a J6 infected in human HuH7 replicon cells assessed as reduction in viral replication after 3 days by luciferase reporter gene assay. The note with it: Hepatitis C virus subtype 2a. It counts as cell-based.

In the case of `COC(=O)N[C@H](C(=O)N1CCC[C@H]1c1ncc(-c2ccc3c(c2)COc2c-3ccc3c2ccc2nc([C@@H]4CCCN4C(=O)[C@@H](NC(=O)OC)C(C)C)[nH]c23)[nH]1)C(C)C`, the Fa is 31% in data set [1] and 54% in data set [2].

With `COC[C@H]1C[C@@H](c2nc3ccc4cc5c(cc4c3[nH]2)OCc2cc(-c3cnc([C@@H]4CCCN4C(=O)[C@@H](NC(=O)OC)C(C)C)[nH]3)ccc2-5)N(C(=O)[C@@H](NC(=O)OC)C(C)C)C1`, the results for the Fa in data set [1] and in data set [2] were 16% and 56%, respectively.

Turning to `COC(=O)N[C@H](C(=O)N1CCC[C@H]1c1ncc(-c2cc3c4c(c2)OCc2cc(-c5cnc([C@@H]6CCCN6C(=O)[C@@H](NC(=O)OC)C(C)C)[nH]5)cc(c2-4)OC3)[nH]1)C(C)C`, the Fa in data set [1] worked out at 23%; in data set [3], 15%; in data set [2], 70%. The Ratio EC50 in data set [4] turned out to be 300; in data set [5], 4800; in data set [6], 28.

For `COC(=O)N[C@H](C(=O)N1CCC[C@H]1c1ncc(-c2cc3c4c(c2)COc2cc(-c5cnc([C@@H]6CCCN6C(=O)[C@@H](NC(=O)OC)C(C)C)[nH]5)cc(c2-4)OC3)[nH]1)C(C)C`, the Fa in data set [1] came to 18%; in data set [2], 100%.

With `COC(=O)N[C@@H](C(=O)N1CCC[C@H]1c1ncc(-c2cc3c4c(c2)OCc2cc(-c5cnc([C@@H]6CCCN6C(=O)[C@H](NC(=O)OC)c6ccccc6)[nH]5)cc(c2-4)OC3)[nH]1)c1ccccc1`, the Fa was 2% in data set [1], 2% in data set [3] and 34% in data set [2].

As to `COC(=O)N[C@H](C(=O)N1[C@@H](C)CC[C@H]1c1ncc(-c2ccc3c(c2)COc2cc4c(ccc5nc([C@@H]6CC[C@H](C)N6C(=O)[C@@H](NC(=O)OC)C(C)C)[nH]c54)cc2-3)[nH]1)C(C)C`, the Fa in data set [1] was found to be 27%; in data set [3], 53%; in data set [2], 100%.

Regarding `COC(=O)N[C@@H](C(=O)N1C[C@@H](C)C[C@H]1c1ncc(-c2cc3c4c(c2)OCc2cc(-c5cnc([C@@H]6C[C@H](C)CN6C(=O)[C@H](NC(=O)OC)c6ccccc6)[nH]5)cc(c2-4)OC3)[nH]1)c1ccccc1`, the Fa was 2% in data set [1] and 30% in data set [2].

With `COC(=O)N[C@H](C(=O)N1[C@@H](C)CC[C@H]1c1nc2ccc3cc4c(cc3c2[nH]1)OCc1cc(-c2cnc([C@@H]3C[C@H](C)CN3C(=O)[C@H](NC(=O)OC)c3ccccc3)[nH]2)ccc1-4)C(C)C`, the Fa in data set [1] was determined as 4%.

Consider `COC[C@H]1C[C@@H](c2ncc(-c3ccc4c(c3)COc3cc5c(ccc6nc([C@@H]7C[C@H](COC)CN7C(=O)[C@@H](NC(=O)OC)C(C)C)[nH]c65)cc3-4)[nH]2)N(C(=O)[C@@H](NC(=O)OC)C(C)C)C1`, for which, in data set [1], the Fa stood at 10%.

Regarding `COC(=O)N[C@H](C(=O)N1CCC[C@H]1c1ncc(-c2ccc3c(c2)COc2cc4c(ccc5nc([C@@H]6CCCN6C(=O)[C@@H](NC(=O)OC)C(C)C)[nH]c54)cc2-3)[nH]1)C(C)C`, the Fa in data set [1] was 15%; in data set [2], 50%.

In the case of `COC[C@H]1C[C@@H](c2ncc(-c3ccc4c(c3)COc3cc5c(ccc6nc([C@@H]7C[C@@H]8C[C@H]8N7C(=O)[C@@H](NC(=O)OC)C(C)C)[nH]c65)cc3-4)[nH]2)N(C(=O)[C@H](NC(=O)OC)c2ccccc2)C1`, the Fa in data set [1] came to 13%.

As to `COC(=O)N[C@H](C(=O)N1C[C@@H](C)C[C@H]1c1nc2ccc3cc4c(cc3c2[nH]1)OCc1cc(-c2cnc([C@@H]3C[C@H](C)CN3C(=O)[C@H](NC(=O)OC)c3ccccc3)[nH]2)ccc1-4)C(C)C`, the Fa in data set [1] was 4%.

Regarding `COC(=O)N[C@H](C(=O)N1CCC[C@H]1c1ncc(-c2ccc3c(c2)COc2cc4c(ccc5nc([C@@H]6CCCN6C(=O)[C@H](NC(=O)OC)c6ccccc6)[nH]c54)cc2-3)[nH]1)C(C)C`, the Fa was determined as 13% in data set [1], 16% in data set [3] and 56% in data set [2].

With `COC[C@H]1C[C@@H](c2ncc(-c3ccc4c(c3)COc3cc5c(ccc6nc([C@@H]7CCCN7C(=O)[C@@H](NC(=O)OC)C(C)C)[nH]c65)cc3-4)[nH]2)N(C(=O)[C@H](NC(=O)OC)c2ccccc2)C1`, the Fa in data set [1] was 12%; in data set [3], 3%.

Regarding `COC[C@H]1C[C@@H](c2nc3ccc4cc5c(cc4c3[nH]2)OCc2cc(-c3cnc([C@@H]4C[C@H](C)CN4C(=O)[C@@H](NC(=O)OC)C(C)C)[nH]3)ccc2-5)N(C(=O)[C@@H](NC(=O)OC)C(C)C)C1`, the Fa in data set [1] turned out to be 11%.

In the case of `COC(=O)N[C@H](C(=O)N1CCC[C@H]1c1ncc(-c2ccc3c(c2)COc2cc4c(ccc5nc([C@@H]6C[C@H](C)CN6C(=O)[C@@H](NC(=O)OC)C(C)C)[nH]c54)cc2-3)[nH]1)C(C)C`, in data set [1], the Fa turned out to be 10%.

Turning to `COC[C@H]1C[C@@H](c2ncc(-c3cc4c5c(c3)OCc3cc(-c6cnc([C@@H]7CC[C@H](C)N7C(=O)[C@@H](NC(=O)OC)C(C)C)[nH]6)cc(c3-5)OC4)[nH]2)N(C(=O)[C@H](NC(=O)OC)c2ccccc2)C1`, the Fa turned out to be 29% in data set [1] and 26% in data set [3].

Turning to `COC(=O)N[C@@H](C(=O)N1[C@@H](C)CC[C@H]1c1ncc(-c2cc3c4c(c2)OCc2cc(-c5cnc([C@@H]6CC[C@H](C)N6C(=O)[C@H](NC(=O)OC)c6ccccc6)[nH]5)cc(c2-4)OC3)[nH]1)c1ccccc1`, the Fa in data set [1] is 3%; in data set [2], 43%.

`COC[C@H]1C[C@@H](c2nc3ccc4cc5c(cc4c3[nH]2)OCc2cc(-c3cnc([C@@H]4CC[C@H](C)N4C(=O)[C@@H](NC(=O)OC)C(C)C)[nH]3)ccc2-5)N(C(=O)[C@@H](NC(=O)OC)C(C)C)C1`: the Fa in data set [1] turned out to be 13%; in data set [3], 64%.

As for `COC[C@H]1C[C@@H](c2ncc(-c3ccc4c(c3)COc3cc5c(ccc6nc([C@@H]7C[C@H](C)CN7C(=O)[C@@H](NC(=O)OC)C(C)C)[nH]c65)cc3-4)[nH]2)N(C(=O)[C@H](NC(=O)OC)c2ccccc2)C1`, the Fa worked out at 9% in data set [1] and 4% in data set [3].
